{"source": "paper PMC12333940", "about": "“A prometabolite strategy inhibits cardiometabolic disease in an ApoE^–/– murine model of atherosclerosis” (JCI Insight, 2025)", "key": {"[1]": {"tested_on": "RAW 264.7 macrophages", "experiment": "Cell viability assay (MTS)", "assay_type": "cell-based", "conditions": "at 4 mM and above", "method": "CellTiter 96 AQueous one Solution Cell Proliferation Assay (MTS) (Promega, G3582) was used according to the manufacturer’s instructions to analyze cytotoxicity of SerBut and NaBut at various concentrations (0.15–12 mM) in RAW 264.7 macrophages. Viability values were normalized to untreated cells (100%) and Triton X-100–treated cells (0%). Since absorbance is directly proportional to the number of living cells in culture, values greater than 100% indicate cell growth compared with controls."}, "[2]": {"experiment": "LC-MS/MS of free butyrate in solution of fresh and aged SerBut", "conditions": "freshly dissolved", "method": "To investigate stability, we repeated the experiment with SerBut in FBS-supplemented complete media stored for 1 month at 37°C (Figure 1B).\n(B) LC-MS/MS analysis of free butyrate in solution of aged SerBut (incubated at 37°C in FBS-supplemented media for 1 month) and freshly dissolved SerBut and NaBut. (C) NF-κB activity of RAW Blue reporter cells upon treatment with the indicated concentrations of SerBut or NaBut for 24 hours followed by stimulation with 200 ng/mL LPS for 6 hours. (D–J) RAW 264.7 cells treated for 24 hours with the indicated concentrations of SerBut or NaBut followed by stimulation with 200 ng/mL LPS for 6 hours. (D–E) Mean fluorescence intensity (MFI) of iNOS^+ or CD80^+ RAW 264.7 cells analyzed by flow cytometry. (F–J) Cytokine concentrations in the cell culture supernatant of RAW 264.7 cells. “x” indicates untreated group. In A, n = 3 per group representing technical replicates. In B, n = 3 freshly prepared samples per 2 distinct experiments pooled for aged SerBut and NaBut groups, while fresh the SerBut group represents a single experiment. One sample in the aged SerBut group and 2 samples in the NaBut group were lost due to filtering malfunctions or LC-MS/MS autosampling malfunctions. In C, n = 6 technical replicates. Data represent mean ± SEM. […] In A, 2-way ANOVA was performed.\nSamples were prepared and derivatized as described previously ([28]). Stock solutions were prepared in water/acetonitrile (ACN) (1:1 v/v): 3-nitrophenylhydrazine (NPH), and 1-ethyl-3-(3-dimethylaminopropyl)carbodiimide (EDC) (in 1% pyridine). The internal standard, 4-methylvaleric acid, was added. Samples were mixed with NPH and EDC stocks at a 1:1:1 volume ratio. The mixture was heated in a heating block at 60°C for 30 minutes. Samples were filtered through 0.22 μm filters and stored at 4°C before analysis.\nBoth derivatized butyrate-NPH and 4-methylvaleric-NPH were detected in negative mode. Column: Thermo Fisher Scientific C18 4.6 × 50 mm, 1.8 μm particle size, at room temperature. Mobile phase A: water with 0.1% v/v formic acid. Mobile phase B: ACN with 0.1% v/v formic acid. Injection volume: 5.0 μL. Flow rate: 0.5 mL/min. […] The MS conditions were optimized using pure butyrate-NPH or 4-methylvaleric-NPH at 1 mM. […] The ratio between MRM of butyrate and 4-methylvaleric acid was used to quantify butyrate concentration."}, "[3]": {"tested_on": "RAW 264.7 macrophages", "experiment": "LEGENDPlex cytokines in supernatant of LPS-stimulated RAW 264.7", "assay_type": "cell-based", "design": "TNFa (Legendplex) / MCP-1 (Legendplex) / IL-10 (Legendplex) / IL-6 (Legendplex): unit not given here", "method": "RAW 264.7 (ATCC, TIB-71) macrophages were cultured at 37°C and 5% CO2 in DMEM (Gibco) supplemented with 1 mM HEPES, 1 mM sodium pyruvate, 10% FBS, and penicillin/streptomycin. Cells were plated in round-bottom 96-well plates at 100,000 cells per well and incubated with different concentrations of either NaBut or SerBut (0.15–12 mM) for 24 hours. Cells were then rinsed with PBS and then stimulated with 200 ng/mL LPS in media for 6 hours. The cell culture supernatant was collected and analyzed by LEGENDPlex to analyze the concentrations of cytokines (BioLegend). Cell phenotype was analyzed using flow cytometry (Cytek Aurora)."}, "[4]": {"tested_on": "ApoE^–/– mice on an HFD", "experiment": "Inflammatory cytokines in plasma (LEGENDPlex)", "assay_type": "in vivo, mouse", "design": "Plasma LegendPlex IFNy / Plasma LegendPlex IL-1B / Plasma LegendPlex IL-6: unit not given here", "method": "SerBut water was pH adjusted using 10 M NaOH to a final pH of 7.4. […] After 6 weeks, mice were euthanized. […] The liver was harvested and part was homogenized in tissue protein extraction reagent buffer (Invitrogen, 78510) supplemented with protease inhibitor mini tablets (Thermo Fisher Scientific, PIA32955) for Western blotting and qPCR. […] Blood chemical analysis was performed on an Alfa […] Chemistry Analyzer. Reagent kits from Alfa Wasserman were used according to manufacturer's instructions to analyze plasma: lipase (catalog SA1045), HDL-C (catalog SA2038, LDL-C (catalog SA1040), AST (catalog SA1053), ALT (catalog SA1052). A LEGENDPlex was utilized to analyze the concentrations of inflammatory cytokines (BioLegend)."}, "[5]": {"tested_on": "ApoE^–/– mice on an HFD", "experiment": "Flow cytometry of blood, lymph nodes and spleen", "assay_type": "in vivo, mouse", "design": "Treg / Th17 / F480+CD11b+ Macrophages / iNOS+ Macs / Arg1+ Macs: unit not given here", "method": "SerBut water was pH adjusted using 10 M NaOH to a final pH of 7.4. […] After 6 weeks, mice were euthanized. The lMLNs, ILNs, spleen, heart, and aorta were harvested and processed for flow cytometry analysis ([67]). […] The remaining liver was fixed with 4% paraformaldehyde and embedded in paraffin for histological analysis.\nFlow cytometry was performed using a BD LSRFortessa or a Cytek Aurora full-spectrum cytometer."}, "[6]": {"conditions": "Inguinal Lymph Node Flow, individual mice"}, "[7]": {"conditions": "Mesenteric Lymph Node Flow, individual mice"}}, "note": "Values joined by “and” are separate entries in the source; they are usually repeats but may differ in a detail not shown here. Equal entries are not always repeated.", "data": [{"smiles": "CCCC(=O)[O-].[Na+]", "note": "[NaBut, sodium butyrate, reference compound]", "values": [{"measurement": "cell viability", "setting": "[1]", "result": "significantly reduced cell viability"}, {"measurement": "Butyrate Release by LCMS-MS (free butyrate)", "setting": "[2]", "result": "2.185 and 1.975 and 1.35 and 1.426"}, {"measurement": "IL-10 (Legendplex)", "setting": "[3]; 0.15 mM 24 h, then LPS 6 h", "result": "8.317 and 9.29 and 13.129 and 8.37"}, {"measurement": "MCP-1 (Legendplex)", "setting": "[3]; 0.15 mM 24 h, then LPS 6 h", "result": "1660.24 and 2264.24 and 1687.05 and 2929.5 and 2357.33 and 2465.59"}, {"measurement": "TNFa (Legendplex)", "setting": "[3]; 0.15 mM 24 h, then LPS 6 h", "result": "3467.9 and 2909.16 and 2378.78 and 3607.94 and 2472.11 and 3683.23"}, {"measurement": "MCP-1 (Legendplex)", "setting": "[3]; 0.45 mM 24 h, then LPS 6 h", "result": "2112.3 and 1670.81 and 2406.34 and 3206.1 and 2298.22 and 2148.28"}, {"measurement": "TNFa (Legendplex)", "setting": "[3]; 0.45 mM 24 h, then LPS 6 h", "result": "3244.2 and 3100.16 and 2160.11 and 2490.85 and 3404.75 and 4226.6"}, {"measurement": "IL-6 (Legendplex)", "setting": "[3]; 1.3 mM 24 h, then LPS 6 h", "result": "176.681 and 160.514 and 142.105 and 263.619 and 136.873 and 198.799"}, {"measurement": "IL-10 (Legendplex)", "setting": "[3]; 1.3 mM 24 h, then LPS 6 h", "result": "98.389 and 140.989 and 108.157 and 179.138 and 132.561 and 143.069"}, {"measurement": "MCP-1 (Legendplex)", "setting": "[3]; 1.3 mM 24 h, then LPS 6 h", "result": "906.304 and 776.372 and 770.115 and 1009 and 667.135 and 799.178"}, {"measurement": "TNFa (Legendplex)", "setting": "[3]; 1.3 mM 24 h, then LPS 6 h", "result": "1902.56 and 1870.65 and 1906.93 and 1713.88 and 1376.2 and 1809.49"}, {"measurement": "IL-10", "setting": "[3]; compared with LPS-stimulated controls", "result": "significantly increased"}, {"measurement": "plasma IL-1β", "setting": "[4]; 6 weeks", "result": "trend toward reduction"}, {"measurement": "IL-6 and IFN-γ in plasma", "setting": "[4]; 6 weeks, compared with control groups", "result": "did not"}, {"measurement": "Plasma LegendPlex IFNy", "setting": "[4]; plasma, individual mice", "result": "43.19 and 71.91 and 156.97 and 1.54 and 133.26 and 33.33 and 25.52 and 29.92 and 11.45"}, {"measurement": "Plasma LegendPlex IL-1B", "setting": "[4]; plasma, individual mice", "result": "1.73 and 1.26 and 132.12 and 0.34 and 3.85 and 0.46 and 0.64"}, {"measurement": "Plasma LegendPlex IL-6", "setting": "[4]; plasma, individual mice", "result": "1.6 and 2.29 and 7.3 and 0.92 and 0.99 and 1.54"}, {"measurement": "Arg1+ Macs", "setting": "[5]; [6]", "result": "1.5 and 2.34 and 2.81 and 2.38"}, {"measurement": "F480+CD11b+ Macrophages", "setting": "[5]; [6]", "result": "0.62 and 0.34 and 0.21 and 0.27"}, {"measurement": "Th17", "setting": "[5]; [6]", "result": "4.92 and 5.5 and 5.4 and 13 and 8.24 and 3.69 and 4.14 and 8.43 and 4.57 and 3.89"}, {"measurement": "Th17/Treg", "setting": "[5]; [6]", "result": "0.4278 and 0.4365 and 0.4463 and 1.161 and 0.7423 and 0.2976 and 0.345 and 0.4153 and 0.3288 and 0.2701"}, {"measurement": "Treg", "setting": "[5]; [6]", "result": "11.5 and 12.6 and 12.1 and 11.2 and 11.1 and 12.4 and 12 and 20.3 and 13.9 and 14.4"}, {"measurement": "iNOS+ Macs", "setting": "[5]; [6]", "result": "2.2 and 5.7 and 2.33 and 5.26"}, {"measurement": "Arg1+ Macs", "setting": "[5]; [7]", "result": "1.44 and 1.98 and 1.72 and 1.71"}, {"measurement": "F480+CD11b+ Macrophages", "setting": "[5]; [7]", "result": "11.6 and 5.7 and 6.38 and 10.4"}, {"measurement": "Th17", "setting": "[5]; [7]", "result": "11.7 and 14.4 and 12.2 and 12.1 and 11.3 and 18.4 and 15.3"}, {"measurement": "Th17/Treg", "setting": "[5]; [7]", "result": "1.054 and 1.385 and 0.8652 and 1.008 and 0.8968 and 1.108 and 0.8895"}, {"measurement": "Treg", "setting": "[5]; [7]", "result": "11.1 and 10.4 and 14.1 and 12 and 12.6 and 16.6 and 17.2"}, {"measurement": "iNOS+ Macs", "setting": "[5]; [7]", "result": "2.42 and 0.43 and 0.69 and 0.94"}, {"measurement": "Th17", "setting": "[5]; Spleen Flow, individual mice", "result": "1.11 and 0.85 and 1.17 and 1.19 and 1.09 and 1.43 and 1.41 and 1.08 and 1.22 and 0.97"}, {"measurement": "Th17/Treg", "setting": "[5]; Spleen Flow, individual mice", "result": "0.1535 and 0.1111 and 0.1425 and 0.1357 and 0.131 and 0.1783 and 0.1653 and 0.135 and 0.1432 and 0.1325"}, {"measurement": "Treg", "setting": "[5]; Spleen Flow, individual mice", "result": "7.23 and 7.65 and 8.21 and 8.77 and 8.32 and 8.02 and 8.53 and 8 and 8.52 and 7.32"}, {"measurement": "Blood Neutrophils: CD11b+Ly6G+ %CD45", "setting": "[5]; blood, individual mice", "result": "7.65 %CD45 and 9.07 %CD45 and 17.4 %CD45 and 8.36 %CD45 and 14.3 %CD45 and 19.3 %CD45 and 20.8 %CD45 and 17.3 %CD45 and 19.5 %CD45 and 14.8 %CD45 and 22.8 %CD45 and 4.26 %CD45 and 16.8 %CD45"}, {"measurement": "Th17/Treg cell ratio", "setting": "[5]; spleen", "result": "lower Th17/Treg cell ratio"}]}]}
